According to patent US9908854B2, “Process for synthesizing ergothioneine and related compounds” (University of Cape Town, priority 2014, dated 2018):
Values joined by “and” are separate entries in the source; they are usually repeats but may differ in a detail not shown here. Equal values may be shown once. “Also recorded” adds a separate entry of the source.

Assays:
[1] = system: crude M. smegmatis enzymes (ESH pathway, EgtE); test: Biotransformation of substrates to ergothioneine using crude M. smegmatis enzymes preparation (LC/MS); type: biochemical, Mycobacterium smegmatis; conditions: for concentration of ESH produced: 50 mM substrate, crude M. smegmatis cell free extract, 37° C., pH=7.4, 1 day, LCMS, control (endogenous ESH) 5.70 ng/ml
Protocol: FIG. 1 In vitro reconstitution of ESH; 100 μl reactions containing 20 mM Tris HCl pH=7.4, 20 mM NaCl, 0.2 Mm FeSO4.7H2O, 0.5 mM mercaptoethanol, 83 μl of crude M. smeg enzymes and 50 mM of either (a) S-(β-amino-β-carboxyethyl)ergothioneine sulfide (15); (b) S-(β-amino-β-carboxyethyl)ergothioneine sulfoxide (II) and (c) control. The crude enzyme reactions were incubated for 1 day at 37° C. followed by analysis by LC/MS.
The enzymatic and non-enzymatic PLP mediated synthesis of ESH from the synthetic sulfoxide (II) was compared. To this end, crude M. smegmatis cell free extracts were isolated from cultures grown and harvested at the late exponential phase, characterised by high enzymatic activity.^10
The crude enzymatic transformation of the ESH biosynthetic pathway precursors, including sulfide and sulfoxide variants were evaluated by the concomitant production of ESH in excess of basal levels as determined by LCMS. ESH precursor metabolites (β-amino-β-carboxyethyl)ergothioneine sulfide (15) and (β-amino-β-carboxyethyl)ergothioneine sulfoxide (II) were incubated with the crude cell free extract at 37° C., pH=7.4 for 1 day, and analyzed by LCMS.
The control reaction containing only the crude M. smegmatis cell free extract was also treated under the same conditions as the metabolites. The concentration of ESH thus obtained was 5.70 (±0.30) ng/ml, which was equated to that of endogenous ESH. This concentration was above the limit of detection (0.78 ng/ml), thus any increase in the concentration of ESH in the experiment above 1 ng/ml is considered significant enough to be ascribed to basal levels or biotransformation of the respective substrates by the crude endogenous enzymes of the ESH pathway. […]

[2] = Non enzymatic cleavage of C-S bond catalysed by PLP (LC/MS); conditions: 50 mM substrate plus 50 mM PLP, 20 mM Tris HCl pH=7.4, 37° C., 24 h
Protocol: FIG. 2 Non enzymatic production of ESH catalysed by PLP. TIC extracted for ESH and PLP using S-(β-amino-β-carboxyethyl)ergothioneine sulfide (15), S-(β-amino-β-carboxyethyl)ergothioneine sulfoxide (II) and S-(β-amino-β-carboxyethyl)ergothioneine sulfone (III).
FIG. 3 Non enzymatic production of ESH graph contain; 100 μl reactions containing 20 mM Tris HCl pH=7.4, 20 mM NaCl, 50 mM of either (1) sulfide (15) plus PLP, (2) sulfoxide (II) plus PLP, (3) sulfone (III) plus PLP respectively. Reaction time: 24 h.
Three sets of 100 μl reactions (1-3) containing 20 mM Tris HCl pH=7.4, and 50 mM of either (1) S-(β-amino-β-carboxyethyl)ergothioneine sulfide (15) and PLP (2) S-(β-amino-β-carboxyethyl)ergothioneine sulfoxide (II) and PLP or (3) S-(β-amino-βcarboxyethyl)ergothioneine sulfone (III) and PLP. The non-enzymatic reactions were incubated for 1 day at 37° C., followed by lyophilisation and subsequent reconstitution in LC buffer before analysis by LC/MS (FIGS. 2 and 3).

[3] = system: crude cell free extracts of Neurospora Crassa; conditions: synthetic sulfoxide of the 1974 prior synthesis; cited from earlier work

Row | SMILES | stability to Egt E enzyme mediated C-S cleavage [1] | formation of ESH (non-enzymatic, PLP) [2] | concentration of ESH produced [1] [ng/mL] | cleavage to ESH by crude cell free extracts [3]
1 | C[N+](C)(C)[C@@H](Cc1c[nH]c(S(=O)(=O)C[C@H](N)C(=O)O)n1)C(=O)O [III] | stable | did not produce ESH at all |  | 
2 | C[N+](C)(C)[C@@H](Cc1c[nH]c([S+]([O-])C[C@H](N)C(=O)O)n1)C(=O)O (stereo partly shown) [II] |  | no ESH at all; also recorded: did not produce ESH at all | 22.6 | extensively cleaved to ESH
3 | C[N+](C)(C)[C@@H](Cc1c[nH]c(SC[C@H](N)C(=O)O)n1)C(=O)O [compound 15, S-(β-amino-β-carboxyethyl)ergothioneine sulfide] |  | 96.3 ng/mL and 96.34 ng/mL | 19.2 | 
